“Also recorded” adds a separate entry of the source.
Tests used:
[1] = tested on: primary human fibroblasts; assay: Viability of primary human fibroblasts, 72 h; format: cell-based; settings: compared with SUDHL5
Method: Lymphoma and leukemia cells were grown in RPMI-1640 medium (ATCC 30–2001) supplemented with 10% fetal bovine serum (FBS) and 1% 100X Penicillin-Streptomycin (Gibco, 15140122) in incubators at 37°C with 5% carbon dioxide. KARPAS422 cells were obtained from Sigma (06101702) and DB and SUDHL5 were obtained from the American Tissue Culture Collection (ATCC). The Daudi cell line, originally from ATCC, was generously provided by R. Levy’s laboratory at Stanford University. Raji cells, also from ATCC, were a gift from J. Cochran’s laboratory at Stanford University. TOLEDO and K562 cells were originally obtained from ATCC and were kindly shared by A. Alizadeh’s laboratory at Stanford University. […]
Thirty thousand cells were seeded in 100 μl of media per well of a 96-well plate and treated with drug for the indicated times and doses. A resazurin-based indicator of cell health (PrestoBlue; P50200, Thermo Fisher) was added for 1.5 h at 37°C, at which point the fluorescence ratio at 560/590 nm was recorded (Tecan Spark). The background fluorescence was subtracted, and the signal was normalized to DMSO-treated cells. IC50 measurements on cell lines were calculated using at least three biological replicates (separate cell passages). […]

FLAG-tagged BCL6 = target: T1, FLAG-tagged BCL6 (Homo sapiens, UniProt P41182+Q09472+Q92793); assay: FLAG IP-MS in FLAG-tagged BCL6 knock-in SUDHL5; format: cell-based; settings: FLAG-BCL6 SUDHL5, 1 nM, 2 h
T1 construct: endogenous in cells; host or cells: SUDHL5, CRISPR genomic knock-in at the BCL6 stop codon
T1 sequence (Q92793 2-2442 limits assumed, other chains not shown): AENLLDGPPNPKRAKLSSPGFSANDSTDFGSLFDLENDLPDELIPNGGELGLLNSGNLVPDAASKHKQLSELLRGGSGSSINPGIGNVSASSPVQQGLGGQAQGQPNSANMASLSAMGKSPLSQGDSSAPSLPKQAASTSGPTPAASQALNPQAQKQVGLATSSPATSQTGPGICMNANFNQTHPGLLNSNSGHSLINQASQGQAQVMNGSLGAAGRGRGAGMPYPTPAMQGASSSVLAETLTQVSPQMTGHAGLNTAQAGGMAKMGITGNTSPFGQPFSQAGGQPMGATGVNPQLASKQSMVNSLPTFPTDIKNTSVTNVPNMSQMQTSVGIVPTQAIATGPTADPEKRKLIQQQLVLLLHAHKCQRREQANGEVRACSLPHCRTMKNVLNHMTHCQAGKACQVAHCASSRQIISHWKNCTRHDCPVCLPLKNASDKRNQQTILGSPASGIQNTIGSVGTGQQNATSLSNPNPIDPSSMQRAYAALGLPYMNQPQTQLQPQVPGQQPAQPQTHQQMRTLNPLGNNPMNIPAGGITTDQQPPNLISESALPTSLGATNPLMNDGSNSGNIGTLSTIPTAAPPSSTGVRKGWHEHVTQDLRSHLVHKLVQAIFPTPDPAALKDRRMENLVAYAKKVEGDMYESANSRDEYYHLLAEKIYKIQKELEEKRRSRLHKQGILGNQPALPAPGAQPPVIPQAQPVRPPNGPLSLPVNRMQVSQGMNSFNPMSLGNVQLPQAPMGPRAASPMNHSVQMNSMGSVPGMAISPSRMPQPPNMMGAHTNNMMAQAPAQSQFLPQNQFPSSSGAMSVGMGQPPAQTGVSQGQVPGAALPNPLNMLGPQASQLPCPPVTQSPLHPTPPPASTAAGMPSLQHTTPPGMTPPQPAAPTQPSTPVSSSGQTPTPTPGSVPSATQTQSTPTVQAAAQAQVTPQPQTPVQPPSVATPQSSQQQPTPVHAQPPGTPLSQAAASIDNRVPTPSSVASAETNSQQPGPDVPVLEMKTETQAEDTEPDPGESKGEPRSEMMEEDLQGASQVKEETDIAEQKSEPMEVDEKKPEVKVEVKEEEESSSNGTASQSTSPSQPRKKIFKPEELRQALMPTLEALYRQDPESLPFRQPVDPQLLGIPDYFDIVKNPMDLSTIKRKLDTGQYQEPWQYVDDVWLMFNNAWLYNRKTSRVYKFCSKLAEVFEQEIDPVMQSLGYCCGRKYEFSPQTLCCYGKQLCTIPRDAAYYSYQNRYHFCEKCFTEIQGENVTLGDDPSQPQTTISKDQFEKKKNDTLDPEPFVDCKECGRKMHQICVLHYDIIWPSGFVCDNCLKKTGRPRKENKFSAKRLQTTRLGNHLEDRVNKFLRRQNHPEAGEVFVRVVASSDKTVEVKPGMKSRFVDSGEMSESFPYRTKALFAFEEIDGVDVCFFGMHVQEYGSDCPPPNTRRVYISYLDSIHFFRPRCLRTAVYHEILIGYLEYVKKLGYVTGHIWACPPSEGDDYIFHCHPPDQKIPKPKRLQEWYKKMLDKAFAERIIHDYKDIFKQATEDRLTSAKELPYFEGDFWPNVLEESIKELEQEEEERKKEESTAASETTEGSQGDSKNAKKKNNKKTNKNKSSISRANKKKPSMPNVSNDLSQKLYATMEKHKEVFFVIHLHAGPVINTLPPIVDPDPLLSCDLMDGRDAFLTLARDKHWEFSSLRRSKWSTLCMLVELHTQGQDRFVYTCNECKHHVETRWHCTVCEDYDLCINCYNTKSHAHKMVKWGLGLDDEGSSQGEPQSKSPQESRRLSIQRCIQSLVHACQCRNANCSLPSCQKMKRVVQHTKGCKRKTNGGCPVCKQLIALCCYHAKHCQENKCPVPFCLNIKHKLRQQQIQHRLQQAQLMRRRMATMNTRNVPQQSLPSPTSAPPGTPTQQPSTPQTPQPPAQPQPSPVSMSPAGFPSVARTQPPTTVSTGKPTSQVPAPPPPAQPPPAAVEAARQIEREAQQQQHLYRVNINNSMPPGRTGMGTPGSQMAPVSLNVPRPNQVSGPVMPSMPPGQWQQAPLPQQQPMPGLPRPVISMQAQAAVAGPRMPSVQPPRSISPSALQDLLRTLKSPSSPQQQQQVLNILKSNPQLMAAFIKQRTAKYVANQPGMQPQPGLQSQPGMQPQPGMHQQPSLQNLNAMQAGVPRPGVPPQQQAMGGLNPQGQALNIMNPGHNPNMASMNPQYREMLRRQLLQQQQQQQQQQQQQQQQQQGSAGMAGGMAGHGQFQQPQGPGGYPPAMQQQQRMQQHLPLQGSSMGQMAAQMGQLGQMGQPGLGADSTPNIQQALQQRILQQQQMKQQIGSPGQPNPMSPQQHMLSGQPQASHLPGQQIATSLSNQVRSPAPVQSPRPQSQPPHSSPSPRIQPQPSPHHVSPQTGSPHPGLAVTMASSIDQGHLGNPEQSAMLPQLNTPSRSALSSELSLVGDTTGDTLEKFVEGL
T1 sequence (Q09472 2-2414 limits assumed, other chains not shown): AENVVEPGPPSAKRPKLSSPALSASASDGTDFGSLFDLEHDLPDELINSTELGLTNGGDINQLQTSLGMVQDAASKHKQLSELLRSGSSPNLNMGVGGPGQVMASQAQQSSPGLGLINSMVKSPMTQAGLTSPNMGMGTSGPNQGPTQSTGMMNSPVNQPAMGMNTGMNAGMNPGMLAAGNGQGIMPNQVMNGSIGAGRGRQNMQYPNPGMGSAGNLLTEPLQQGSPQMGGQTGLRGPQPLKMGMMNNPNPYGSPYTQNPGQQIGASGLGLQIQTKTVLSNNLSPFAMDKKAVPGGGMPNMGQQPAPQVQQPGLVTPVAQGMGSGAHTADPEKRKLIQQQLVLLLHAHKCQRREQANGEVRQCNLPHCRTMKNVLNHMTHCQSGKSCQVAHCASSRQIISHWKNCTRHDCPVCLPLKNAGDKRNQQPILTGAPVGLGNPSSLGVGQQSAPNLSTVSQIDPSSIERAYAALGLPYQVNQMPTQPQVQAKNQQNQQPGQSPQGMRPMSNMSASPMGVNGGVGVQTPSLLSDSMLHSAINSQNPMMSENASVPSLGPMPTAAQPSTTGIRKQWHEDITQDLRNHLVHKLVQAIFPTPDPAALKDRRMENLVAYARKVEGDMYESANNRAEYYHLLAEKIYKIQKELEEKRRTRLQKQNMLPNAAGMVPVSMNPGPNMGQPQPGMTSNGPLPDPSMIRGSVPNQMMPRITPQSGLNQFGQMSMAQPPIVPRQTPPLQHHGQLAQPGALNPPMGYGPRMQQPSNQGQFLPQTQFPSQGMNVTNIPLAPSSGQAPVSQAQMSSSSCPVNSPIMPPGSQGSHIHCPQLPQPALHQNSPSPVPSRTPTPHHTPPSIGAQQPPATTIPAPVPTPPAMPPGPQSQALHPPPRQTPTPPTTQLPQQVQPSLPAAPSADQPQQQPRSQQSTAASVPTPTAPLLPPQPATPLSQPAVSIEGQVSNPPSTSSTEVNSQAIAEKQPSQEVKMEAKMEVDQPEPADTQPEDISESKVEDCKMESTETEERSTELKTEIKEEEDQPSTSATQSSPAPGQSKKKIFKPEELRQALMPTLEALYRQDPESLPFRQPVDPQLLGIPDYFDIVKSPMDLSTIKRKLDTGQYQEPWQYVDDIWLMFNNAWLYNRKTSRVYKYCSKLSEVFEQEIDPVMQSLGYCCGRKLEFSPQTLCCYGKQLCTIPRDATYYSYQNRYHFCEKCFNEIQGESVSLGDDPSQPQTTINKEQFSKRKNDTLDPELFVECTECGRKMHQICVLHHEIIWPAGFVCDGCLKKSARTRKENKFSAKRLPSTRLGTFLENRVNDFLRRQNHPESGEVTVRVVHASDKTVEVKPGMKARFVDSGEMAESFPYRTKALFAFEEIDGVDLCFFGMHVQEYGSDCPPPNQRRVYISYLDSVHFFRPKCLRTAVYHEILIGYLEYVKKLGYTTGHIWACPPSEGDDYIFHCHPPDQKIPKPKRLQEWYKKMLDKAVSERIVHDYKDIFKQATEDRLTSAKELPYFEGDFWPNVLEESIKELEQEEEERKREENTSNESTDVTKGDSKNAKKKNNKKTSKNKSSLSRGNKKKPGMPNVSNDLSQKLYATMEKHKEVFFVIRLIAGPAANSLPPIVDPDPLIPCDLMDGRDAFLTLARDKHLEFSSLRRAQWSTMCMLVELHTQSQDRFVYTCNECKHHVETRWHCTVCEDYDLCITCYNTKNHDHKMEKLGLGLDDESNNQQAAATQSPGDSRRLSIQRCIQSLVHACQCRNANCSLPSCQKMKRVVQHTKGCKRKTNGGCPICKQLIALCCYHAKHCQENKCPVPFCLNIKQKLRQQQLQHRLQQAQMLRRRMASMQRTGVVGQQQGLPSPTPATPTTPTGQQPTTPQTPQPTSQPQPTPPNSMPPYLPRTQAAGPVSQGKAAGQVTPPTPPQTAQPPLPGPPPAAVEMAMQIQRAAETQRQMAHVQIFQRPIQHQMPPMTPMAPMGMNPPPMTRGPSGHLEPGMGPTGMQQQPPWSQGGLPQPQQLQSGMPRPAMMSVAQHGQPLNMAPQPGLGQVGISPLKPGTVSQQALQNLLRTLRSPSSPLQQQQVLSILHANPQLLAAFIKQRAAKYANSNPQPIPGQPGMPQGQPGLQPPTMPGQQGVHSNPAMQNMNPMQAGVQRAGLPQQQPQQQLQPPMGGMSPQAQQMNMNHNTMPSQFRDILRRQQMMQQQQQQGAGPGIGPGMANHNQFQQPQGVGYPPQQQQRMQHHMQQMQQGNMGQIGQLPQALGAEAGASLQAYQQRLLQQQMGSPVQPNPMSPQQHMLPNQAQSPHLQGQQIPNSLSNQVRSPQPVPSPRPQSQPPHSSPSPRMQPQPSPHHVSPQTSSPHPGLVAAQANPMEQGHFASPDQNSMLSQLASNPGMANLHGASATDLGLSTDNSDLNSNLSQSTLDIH
Method: 50 million FLAG-BCL6 knock-in SUDHL5 cells were treated compound or DMSO (0.1%) at indicated doses for 2 hours. Cells were lysed in NE10 buffer (20 mM HEPES (pH 7.5), 10 mM KCl, 1 mM MgCl2, 0.1% Triton X-100 (v/v), protease inhibitors (Roche), 15 mM ß-mercaptoethanol), dounced 15 times and pelleted 5 min at 500 g. Nuclei were washed in NE10 buffer and then digested with 250 units benzonase (Millipore) for 30 min rotating at 25°C. Nuclei were resuspended in NE150 buffer (NE10 supplemented with 150mM NaCl) and incubated for 20 min. Lysates were pelleted at 16,000 g for 20 min at 4°C and supernatants were immunoprecipitated by incubating with 2.5 μg FLAG M2 antibody (F1804, Millipore-Sigma) or 2.5 μg p300 (A300–358A, Bethyl Laboratories) antibody with Dynabeads Protein G (Thermo Fisher) overnight at 4°C. The IP fraction was recovered by magnetic separation followed by three washes with NE10 buffer containing 150mM–300mM NaCl but without Triton-X. For mass spectrometry analysis, the IP was then eluted from the beads with Ammonium Hydroxide, pH 11–12; 3% v/v. […]
The reconstituted desalted peptides were then analyzed using a nanoElute 2 UHPLC (Bruker Daltonics, Bremen, Germany) coupled to a timsTOF HT (Bruker Daltonics, Bremen, Germany) via a CaptiveSpray nano-electrospray source. […]

CNC(=O)COc1cc2cc(Nc3nc(N4CCC(C(=O)N5CCN(CCC(=O)N6CCC(n7nc(N8CCCc9cc(-c%10cnn(C)c%10)c(C(F)F)cc98)c8c7CCN(C(=O)NC)C8)CC6)CC5)CC4)ncc3Cl)cc(OC)c2n(C)c1=O [TCIP3]
cytotoxicity [1]: substantially reduced cytotoxicity; also recorded: without exhibiting toxicity
enrichment of CBP in FLAG-BCL6 IP, log2(fold change) (FLAG-tagged BCL6; vs DMSO): 3.7
enrichment of p300 in FLAG-BCL6 IP, log2(fold change) (FLAG-tagged BCL6; no peptides in DMSO, imputed): 3.7

Reference: publication doi:10.1101/2025.03.14.643404, “A Bivalent Molecular Glue Linking Lysine Acetyltransferases to Oncogene-induced Cell Death” (bioRxiv, 2025)
